{"source": "patent US8815270B2", "about": "“Methods and compositions for treating ectoparasite infestation” (Piedmont Pharmaceuticals, LLC, priority 2002, dated 2014)", "test_system": "adult body louse, Pediculous humanus humanus", "description": "In this embodiment, the effectiveness of pediculicidal materials in the formulation of Example 1 is examined against the adult body louse, Pediculous humanus humanus. But this procedure can be used to test the effectiveness of a composition against the head louse, fleas, ticks, or any ectoparasite. In the following description, “morbid” means that the louse is unable to move towards heat 1 h after treatment. The parasite is sick but not necessarily dying, and may recover to resume normal behavior within 24 hours. By “moribund” is meant the parasite is unable to move towards heat (and therefore food) 24 hours after treatment and is dying.\nFour replicates of 25 lice each, plus five control replicates were examined. A plastic or glass vial, screened at the bottom with 20-mesh was used as the dipping vessel. A plunger, made from a plastic rod, and a circular screen was fitted inside the vial.\n25 adult lice of mixed sexes were placed in the bottom of a test container. A screened plunger was inserted to keep the lice from floating to the surface. The pediculicide material to be tested was placed in a 100-ml beaker and the beaker introduced into a waterbath maintained at 32° C. The test container was placed into the pediculicide in the 100-ml beaker and the lice kept under the pediculicide for 1, 4 or 10 minutes. The test container was removed at end of the desired dipping period. […]"}
{"molecule": "CCCCCCCCCCCCCC(=O)OC(C)C", "note": "[isopropyl myristate, 1-methylethyltetradecanoate]", "values": [{"measurement": "lice killed (mortality) after 1 hour", "result": "about 82%"}, {"measurement": "mortality of lice after 24 hours", "result": 100, "unit": "%"}]}
